Assay results as given in patent publication US20250171434A1, “SEC61 INHIBITORS AND USE THEREOF” (KEZAR LIFE SCIENCES, INC., priority 2022, published 2025).

Assays:
[1] = test system: IL6R-ss+10aa/Gaussia Luciferase; test: Dox-induced IL-6R-ss-Gluc Assay; type: cell-based; settings: Table 1; for IC50: Flp-In 293 T-REx cells, 24 hours with doxycycline, read-out: 24hr Dox Inducible IL6R(ss + 10)Gluc 293FRT/TO: Mean IC50; for 24hr Dox Inducible IL6R(ss + 10)Gluc 293FRT/TO: IL6R/PD1: ratio of IC50s IL6R/PD1
Excerpt: Flp-In 293 T-REx™ cells were transfected with pcDNATM5/FRT/TO plasmid inserted with cDNA encoding Gaussia Luciferase fused to the 3′ end of cDNA encoding IL6R signal sequence plus 10 amino acids (N-[…]-C). Transfected cells were selected for resistance to the selectable markers Hygromycin and Blasticidin to create a stable cell line that contained the IL6R-ss+10aa/Gaussia Luciferase cDNA insert whose expression was regulated under the T-REx™ system. The day before assay, cells were trypsinized and plated in 384-well tissue culture plates. The next day, compound dilutions in DMSO/media containing doxycycline were added to the wells and incubated at 37° C., 5% CO2.
(§1) For chemical structures that include one or more stereoisomers, but are illustrated without indicating stereochemistry, the assay data refers to a mixture of stereoisomers.

[2] = test system: multiple myeloma cell line U266B1; test: U266 Cell Viability Assay; type: cell-based; settings: Homo sapiens, U-266; U266B1 cells, 48 hours, Celltiter-Glo; read-out: 48 hr U266 Viability Celltiter-Glo: Mean EC50
Experimental: (§2) The human multiple myeloma cell line U266B1 was cultured in RPMI 1640 media supplemented with 10% fetal bovine serum, 2 mM Glutamine, and 1× Penicillin/Streptomycin. Cells were plated in 384-well tissue culture plates and treated with compound dilutions in DMSO/media. Plates were incubated at 37° C., 5% CO2 for 48 hours. After 48 hours, Celltiter-Glo® (Promega) was added to each well and luciferase signal was quantified using Tecan Infinite M1000 Pro for cell viability determination.
as §1

[3] = test system: PD1-ss+10aa/Gaussia Luciferase; test: Dox-Induced PD1-ss-Gluc Assay; type: cell-based; settings: Flp-In 293 T-REx cells, 24 hours with doxycycline; Table 1; read-out: 24 hr Dox Inducible PD1ssGluc 293FRT/TO: Mean IC50
Excerpt: Flp-In 293 T-REx™ cells were transfected with pcDNA™5/FRT/TO plasmid inserted with cDNA encoding Gaussia Luciferase fused to the 3′ end of cDNA encoding PD1 signal sequence plus 10 amino acids (N-[…]-C) (SEQ ID NO: 1). Transfected cells were selected for resistance to the selectable markers Hygromycin and Blasticidin to create a stable cell line that contained the PD1-ss+10aa/Gaussia Luciferase cDNA insert whose expression was regulated under the T-REx™ system. The day before assay, cells were trypsinized and plated in 384-well tissue culture plates. The next day, compound dilutions in DMSO/media containing doxycycline were added to the wells and incubated at 37° C., 5% CO2.
as §1

[4] = Liver Microsome Stability Assay, rat; type: in vitro ADME; settings: rat liver microsomes 1.0 mg/mL, 1.0 uM compound, 37° C., 1 mM NADPH
Experimental: (§3) Stability of a compound was assessed in the presence of liver microsomes from various sources—mouse, rat, monkey and human liver microsomes. 1.0 uM compound, 0.4% DMSO in 0.1 M Potassium Phosphate with 1.0 mg/mL liver microsomes, were incubated at 37° C. with or without 1 mM NADPH. The samples were quenched at 0, and 30 minutes.

[5] = test system: IL-2-FL/Gaussia Luciferase; test: Dox Inducible IL2-FL-Gluc Assay; type: cell-based; settings: Table 1; for IC50: Flp-In 293 T-REx cells, 24 hours with doxycycline, read-out: 24 hr Dox Inducible IL2FLGluc 293FRT/TO: Mean IC50; for 24 hr Dox Inducible IL2FLGluc 293FRT/TO: IL2/PD1: ratio of IC50s IL2/PD1
Excerpt: Flp-In 293 T-REx™ cells were transfected with pcDNA™5/FRT/TO plasmid inserted with cDNA encoding Gaussia Luciferase fused to the 3′ end of cDNA encoding full length IL-2 (amino acids 1-153). Transfected cells were selected for resistance to the selectable markers Hygromycin and Blasticidin to create a stable cell line that contained the IL-2-FL/Gaussia Luciferase cDNA insert whose expression was regulated under the T-REx™ system. The day before assay, cells were trypsinized and plated in 384-well tissue culture plates. The next day, compound dilutions in DMSO/media containing doxycycline were added to the wells and incubated at 37° C., 5% CO2.
as §1

CD47(ss + 10)Gluc = test: Dox-Induced CD47-ss-Gluc Assay; type: cell-based; settings: Flp-In 293 T-REx cells, 24 hours with doxycycline; Table 1; read-out: 24 hr Dox Inducible CD47(ss + 10)Gluc 293FRT/TO: Mean IC50
[6] = test system: multiple myeloma cell line NCI-H929; test: H929 Cell Viability Assay; type: cell-based, human; settings: Homo sapiens; NCI-H929 cells, 48 hours, Celltiter-Glo; read-out: 48 hr H929 Viability Celltiter-Glo: Mean EC50
Experimental: as §2, with “NCI-H929” for “U266B1”, “cultured in Advanced RPMI 1640 media (Gibco®) supplemented with 6% fetal bovine serum, 2 mM Glutamine, and 1× Penicillin/Streptomycin. On the day of assay, cells were resuspended” for “cultured”, “Penicillin/Streptomycin and” for “Penicillin/Streptomycin. Cells were”
as §1

[7] = Liver Microsome Stability Assay, mouse; type: in vitro ADME; settings: mouse liver microsomes 1.0 mg/mL, 1.0 uM compound, 37° C., 1 mM NADPH
Experimental: as §3

[8] = Liver Microsome Stability Assay, human; type: in vitro ADME; settings: human liver microsomes 1.0 mg/mL, 1.0 uM compound, 37° C., 1 mM NADPH
Experimental: as §3

[9] = Liver Microsome Stability Assay, monkey; type: in vitro ADME; settings: monkey liver microsomes 1.0 mg/mL, 1.0 uM compound, 37° C., 1 mM NADPH
Experimental: as §3

Row | Compound | IC50 [1] [µM] | 24hr Dox Inducible IL6R(ss + 10)Gluc 293FRT/TO: IL6R/PD1 [1] | EC50 [2] [µM] | IC50 [3] [nM] | Liver Microsome Stability (Multiple Species): Rat - % Remaining after 30 min w/ NADPH (%) [4] [%] | IC50 [5] [µM] | 24 hr Dox Inducible IL2FLGluc 293FRT/TO: IL2/PD1 [5] | IC50 (CD47(ss + 10)Gluc) [µM] | EC50 [6] [µM] | Liver Microsome Stability (Multiple Species): Mouse - % Remaining after 30 min w/ NADPH (%) [7] [%] | Liver Microsome Stability (Multiple Species): Human - % Remaining after 30 min w/ NADPH (%) [8] [%] | Liver Microsome Stability (Multiple Species): Monkey - % Remaining after 30 min w/ NADPH (%) [9] [%]
1 | [2H]C([2H])(c1ccnc(F)c1)n1cc(OC)cc1C(=O)Nc1nc(/C=C/c2ncn(C3CC3)c2Cl)cs1 [Compound A14, (E)-N-(4-(2-(5-chloro-1-cyclopropyl-1H-imidazol-4-yl)vinyl)thiazol-2-yl)-1-((2-fluoropyridin-4-yl)methyl-d2)-4-methoxy-1H-pyrrole-2-carboxamide] | 2.11 | 318 | > 25 | 7 | 20 | 3.44 | 520 | 3.31 | > 25 | 76 | 29 | 4
2 | O=C(Nc1nc(/C=C/c2cn(C(F)(F)F)cn2)cs1)c1cc(Cl)cn1Cc1ccnc(F)c1 [Compound A3, (E)-4-chloro-1-((2-fluoropyridin-4-yl)methyl)-N-(4-(2-(1-(trifluoromethyl)-1H-imidazol-4-yl)vinyl)thiazol-2-yl)-1H-pyrrole-2-carboxamide] | 4.68 | 3 | > 20.2 | 1760 | 21 | 12.2 | 7 | 15.2 | 4.55 | 61 | 6 | 4
3 | O=C(Nc1nc(/C=C/c2ncn(C3CC3)c2Cl)cs1)c1cc(SC(F)(F)F)cn1Cc1ccnc(F)c1 [Compound A31, (E)-N-(4-(2-(5-chloro-1-cyclopropyl-1H-imidazol-4-yl)vinyl)thiazol-2-yl)-1-((2-fluoropyridin-4-yl)methyl)-4-((trifluoromethyl)thio)-1H-pyrrole-2-carboxamide] | 1.26 | 317 | > 25 | 4 | 65 | > 25 | >6300 | 2.21 | 22.7 | 82 | 10 | 25
4 | Cc1nc(/C=C/c2csc(NC(=O)c3cccn3Cc3ccnc(F)c3)n2)ccc1C#N [Compound B14, (E)-N-(4-(2-(5-cyano-6-methylpyridin-2-yl)vinyl)thiazol-2-yl)-1-((2-fluoropyridin-4-yl)methyl)-1H-pyrrole-2-carboxamide] | > 25 | >23 | > 25 | 1100 | <1 | > 25 | >23 | > 25 | > 25 | 0.2 | <1 | <1
5 | CC(C)n1cnc(/C=C/c2csc(NC(=O)c3cccn3Cc3ccnc(F)c3)n2)c1C#N [Compound B20, (E)-N-(4-(2-(5-cyano-1-isopropyl-1H-imidazol-4-yl)vinyl)thiazol-2-yl)-1-((2-fluoropyridin-4-yl)methyl)-1H-pyrrole-2-carboxamide] | 1.32 | 146 | 15.7 | 9 | 33 | 1.53 | 170.0 | 1.52 | 8.36 | 5 | <1 | <1
6 | O=C(Nc1nc(/C=C/c2ncn(C3CC3)c2Cl)cs1)c1cc(O)cn1Cc1ccnc(F)c1 [Compound A18, (E)-N-(4-(2-(5-chloro-1-cyclopropyl-1H-imidazol-4-yl)vinyl)thiazol-2-yl)-1-((2-fluoropyridin-4-yl)methyl)-4-hydroxy-1H-pyrrole-2-carboxamide] | 5.53 | 19 | > 25 | 295 | 10 | 7 | 24 | 6.41 | 24.7 | 33 | 1 | 2
7 | CC(=O)N[C@H]1CC[C@H](/C=C/c2csc(NC(=O)c3cccn3Cc3ccncc3)n2)CC1 [Compound B17] | 23.8 | 5 | 8.61 | 5100 | 17 | 8.24 | 1.6 | > 25 | 5.11 | 4 | <1 | <1
